In PubChem BioAssay AID1259407 (Chemical Carcinogenesis Research Information System (CCRIS), 2018):
Calls of active or inactive are those of the source. The rule behind the calls is not given here.

Tested on: CCRIS mutagenicity, Ames/micronucleus/aberration tests
Assay: CCRIS mutagenicity studies
[1] = Test System: AMES SALMONELLA TYPHIMURIUM, Strain/Indicator: TA98, Metabolic Activation: NONE, Method: PREINCUBATION
[2] = Test System: AMES SALMONELLA TYPHIMURIUM, Strain/Indicator: TA100, Metabolic Activation: NONE, Method: PREINCUBATION
[3] = Test System: AMES SALMONELLA TYPHIMURIUM, Strain/Indicator: TA1535, Metabolic Activation: NONE, Method: PREINCUBATION
[4] = Test System: AMES SALMONELLA TYPHIMURIUM, Strain/Indicator: TA1537, Metabolic Activation: NONE, Method: PREINCUBATION

## Clc1cc(Cl)c(Cl)c(Cl)c1
End Point: IN VITRO CHROMOSOMAL ABERRATIONS, Test System: CHO-LB CELLS, Metabolic Activation: NONE
  mutagenic call: inactive; negative
End Point: IN VITRO CHROMOSOMAL ABERRATIONS, Test System: CHO-LB CELLS, Metabolic Activation: RAT, LIVER, S-9, AROCLOR 1254
  mutagenic call: inactive; negative
Test System: AMES SALMONELLA TYPHIMURIUM, Strain/Indicator: TA98, Metabolic Activation: HAMSTER, LIVER, S-9, AROCLOR 1254, Method: PREINCUBATION
  mutagenic call: inactive; negative
[1]
  mutagenic call: inactive; negative
Test System: AMES SALMONELLA TYPHIMURIUM, Strain/Indicator: TA98, Metabolic Activation: RAT, LIVER, S-9, AROCLOR 1254, Method: PREINCUBATION
  mutagenic call: inactive; negative
Test System: AMES SALMONELLA TYPHIMURIUM, Strain/Indicator: TA100, Metabolic Activation: HAMSTER, LIVER, S-9, AROCLOR 1254, Method: PREINCUBATION
  mutagenic call: inactive; negative
[2]
  mutagenic call: inactive; negative
Test System: AMES SALMONELLA TYPHIMURIUM, Strain/Indicator: TA100, Metabolic Activation: RAT, LIVER, S-9, AROCLOR 1254, Method: PREINCUBATION
  mutagenic call: inactive; negative
Test System: AMES SALMONELLA TYPHIMURIUM, Strain/Indicator: TA1535, Metabolic Activation: HAMSTER, LIVER, S-9, AROCLOR 1254, Method: PREINCUBATION
  mutagenic call: inactive; negative
[3]
  mutagenic call: inactive; negative
Test System: AMES SALMONELLA TYPHIMURIUM, Strain/Indicator: TA1535, Metabolic Activation: RAT, LIVER, S-9, AROCLOR 1254, Method: PREINCUBATION
  mutagenic call: inactive; negative
Test System: AMES SALMONELLA TYPHIMURIUM, Strain/Indicator: TA1537, Metabolic Activation: HAMSTER, LIVER, S-9, AROCLOR 1254, Method: PREINCUBATION
  mutagenic call: inactive; negative
[4]
  mutagenic call: inactive; negative
Test System: AMES SALMONELLA TYPHIMURIUM, Strain/Indicator: TA1537, Metabolic Activation: RAT, LIVER, S-9, AROCLOR 1254, Method: PREINCUBATION
  mutagenic call: inactive; negative

## Nc1ccc2ncsc2c1
[2]
  mutagenic call: inactive; negative
Test System: AMES SALMONELLA TYPHIMURIUM, Strain/Indicator: TA100, Metabolic Activation: RAT LIVER S-9, PHENOBARBITAL AND 5,6-BENZOFLAVONE, Method: PREINCUBATION
  mutagenic call: inactive; negative
Test System: AMES SALMONELLA TYPHIMURIUM, Strain/Indicator: YG1029, Metabolic Activation: NONE, Method: PREINCUBATION
  mutagenic call: inactive; negative
Test System: AMES SALMONELLA TYPHIMURIUM, Strain/Indicator: YG1029, Metabolic Activation: RAT LIVER S-9, PHENOBARBITAL AND 5,6-BENZOFLAVONE, Method: PREINCUBATION
  mutagenic call: active; positive

## CN1C[C@@H](O)c2cc3c(c4c2[C@H]1Cc1ccccc1-4)OCO3
Test System: AMES SALMONELLA TYPHIMURIUM, Strain/Indicator: TA98, Metabolic Activation: RAT, LIVER, S-9, PHENOBARBITAL AND BETA-NAPHTHOFLAVONE, Method: PREINCUBATION
  mutagenic call: active; positive
Test System: AMES SALMONELLA TYPHIMURIUM, Strain/Indicator: TA100, Metabolic Activation: RAT, LIVER, S-9, PHENOBARBITAL AND BETA-NAPHTHOFLAVONE, Method: PREINCUBATION
  mutagenic call: active; positive

## CN(C)c1ccc(CCO)cc1
Test System: AMES SALMONELLA TYPHIMURIUM, Strain/Indicator: TA98, Metabolic Activation: HAMSTER, LIVER, S-9, AROCLOR 1254 (5, 10, 20%), Method: STANDARD PLATE
  mutagenic call: active; positive
Test System: AMES SALMONELLA TYPHIMURIUM, Strain/Indicator: TA98, Metabolic Activation: RAT, LIVER, S-9, AROCLOR 1254 (20%), Method: STANDARD PLATE
  mutagenic call: active; positive
Test System: AMES SALMONELLA TYPHIMURIUM, Strain/Indicator: TA98, Metabolic Activation: RAT, LIVER, S-9, AROCLOR 1254, HAMSTER, LIVER, S-9, AROCLOR 1254, Method: STANDARD PLATE
  mutagenic call: active; positive
Test System: AMES SALMONELLA TYPHIMURIUM, Strain/Indicator: TA1538, Metabolic Activation: HAMSTER, LIVER, S-9, AROCLOR 1254 (2.5-20%), Method: STANDARD PLATE
  mutagenic call: active; positive
Test System: AMES SALMONELLA TYPHIMURIUM, Strain/Indicator: TA1538, Metabolic Activation: RAT, LIVER, S-9, AROCLOR 1254 (5, 10, 20%), Method: STANDARD PLATE
  mutagenic call: active; positive
Test System: AMES SALMONELLA TYPHIMURIUM, Strain/Indicator: TA1538, Metabolic Activation: RAT, LIVER, S-9, AROCLOR 1254, HAMSTER, LIVER, S-9, AROCLOR 1254, Method: STANDARD PLATE
  mutagenic call: active; positive
Test System: MOUSE LYMPHOMA, Strain/Indicator: L5178Y (TK+/TK-), Metabolic Activation: RAT, LIVER, S-9, AROCLOR 1254, Method: SUSPENSION/PLATE
  mutagenic call: active; positive. reevaluation of results: inconclusive
Test System: Mouse lymphoma, Strain/Indicator: L5178Y (tk+/tk-), Metabolic Activation: None, Method: Suspension/plate
  mutagenic call: inactive; negative

## ClC(Cl)=C(Cl)c1ccc(Cl)c(Cl)c1Cl
Test System: AMES SALMONELLA TYPHIMURIUM, Strain/Indicator: TA98, Metabolic Activation: NONE, Method: STANDARD PLATE
  mutagenic call: inactive; negative
Test System: AMES SALMONELLA TYPHIMURIUM, Strain/Indicator: TA98, Metabolic Activation: RAT, LIVER, S-9, AROCLOR 1254, Method: STANDARD PLATE
  mutagenic call: inactive; negative
Test System: AMES SALMONELLA TYPHIMURIUM, Strain/Indicator: TA100, Metabolic Activation: NONE, Method: STANDARD PLATE
  mutagenic call: inactive; negative
Test System: AMES SALMONELLA TYPHIMURIUM, Strain/Indicator: TA100, Metabolic Activation: RAT, LIVER, S-9, AROCLOR 1254, Method: STANDARD PLATE
  mutagenic call: inactive; negative

## C=CC(O)C=C
[1]
  mutagenic call: inactive; negative
Test System: AMES SALMONELLA TYPHIMURIUM, Strain/Indicator: TA98, Metabolic Activation: S-9, Method: PREINCUBATION
  mutagenic call: inactive; negative
[2]
  mutagenic call: inactive; negative
Test System: AMES SALMONELLA TYPHIMURIUM, Strain/Indicator: TA100, Metabolic Activation: S-9, Method: PREINCUBATION
  mutagenic call: active; positive
[3]
  mutagenic call: inactive; negative
Test System: AMES SALMONELLA TYPHIMURIUM, Strain/Indicator: TA1535, Metabolic Activation: S-9, Method: PREINCUBATION
  mutagenic call: inactive; negative
Test System: E.COLI, Strain/Indicator: WP2UVRA/PKM101, Metabolic Activation: NONE, Method: PREINCUBATION
  mutagenic call: inactive; negative
Test System: E.COLI, Strain/Indicator: WP2UVRA/PKM101, Metabolic Activation: S-9, Method: PREINCUBATION
  mutagenic call: inactive; negative

## CC(O)C(C)O (stereo not drawn)
[1]
  mutagenic call: inactive; negative
[2]
  mutagenic call: inactive; negative
[3]
  mutagenic call: inactive; negative
[4]
  mutagenic call: inactive; negative
Test System: AMES SALMONELLA TYPHIMURIUM, Strain/Indicator: TA1538, Metabolic Activation: NONE, Method: PREINCUBATION
  mutagenic call: inactive; negative
Test System: E. COLI, Strain/Indicator: WP2 UVRA, Metabolic Activation: NONE, Method: PREINCUBATION
  mutagenic call: inactive; negative

## NCCCN
Test System: AMES SALMONELLA TYPHIMURIUM, Strain/Indicator: TA98, Metabolic Activation: HAMSTER, LIVER, S-9, AROCLOR 1254 (10%), Method: PREINCUBATION
  mutagenic call: inactive; negative
[1]
  mutagenic call: inactive; negative
Test System: AMES SALMONELLA TYPHIMURIUM, Strain/Indicator: TA98, Metabolic Activation: RAT, LIVER, S-9, AROCLOR 1254 (10%), Method: PREINCUBATION
  mutagenic call: inactive; negative
Test System: AMES SALMONELLA TYPHIMURIUM, Strain/Indicator: TA100, Metabolic Activation: HAMSTER, LIVER, S-9, AROCLOR 1254 (10%), Method: PREINCUBATION
  mutagenic call: inactive; negative
[2]
  mutagenic call: inactive; negative
Test System: AMES SALMONELLA TYPHIMURIUM, Strain/Indicator: TA100, Metabolic Activation: RAT, LIVER, S-9, AROCLOR 1254 (10%), Method: PREINCUBATION
  mutagenic call: inactive; negative
Test System: AMES SALMONELLA TYPHIMURIUM, Strain/Indicator: TA1535, Metabolic Activation: HAMSTER, LIVER, S-9, AROCLOR 1254 (10%), Method: PREINCUBATION
  mutagenic call: inactive; negative
[3]
  mutagenic call: inactive; negative
Test System: AMES SALMONELLA TYPHIMURIUM, Strain/Indicator: TA1535, Metabolic Activation: RAT, LIVER, S-9, AROCLOR 1254 (10%), Method: PREINCUBATION
  mutagenic call: inactive; negative
Test System: AMES SALMONELLA TYPHIMURIUM, Strain/Indicator: TA1537, Metabolic Activation: HAMSTER, LIVER, S-9, AROCLOR 1254 (10%), Method: PREINCUBATION
  mutagenic call: inactive; negative
[4]
  mutagenic call: inactive; negative
Test System: AMES SALMONELLA TYPHIMURIUM, Strain/Indicator: TA1537, Metabolic Activation: RAT, LIVER, S-9, AROCLOR 1254 (10%), Method: PREINCUBATION
  mutagenic call: inactive; negative
